These results are taken from patent US20050197350A1, “Novel quinoline, tetrahydroquinazoline, and pyrimidine derivatives and methods of treatment related to the use thereof” (TAISHO PHARMACEUTICAL CO., LTD., priority 2003, published 2005).

In this assay the test system is MCH receptors. Put plainly: MCH receptor activity class (method not given). Particulars: MCH receptor; class by percent of control at 10^-7 M or IC50.

As to `CN(C)c1nc(N[C@H]2CC[C@@H](NC(=S)Nc3ccc(F)cc3)CC2)nc2c1CCCC2` [compound 1941], the class is 3 (Class 3 The value of percent of control at 10^−7 M was more than 60% or the value of IC50 was more than 200 nM.). Then `CCCCCCNC(=S)N[C@H]1CC[C@@H](Nc2nc3c(c(N(C)C)n2)CCCC3)CC1` [compound 1942], with 3 (Class 3 The value of percent of control at 10^−7 M was more than 60% or the value of IC50 was more than 200 nM.); and `CCC[C@H]1CC[C@H](c2ccc(NC(=S)N[C@H]3CC[C@@H](Nc4nc5c(c(N(C)C)n4)CCCC5)CC3)cc2)CC1` [compound 1943], with 3 (Class 3 The value of percent of control at 10^−7 M was more than 60% or the value of IC50 was more than 200 nM.).

Consider `CC(C)CNC(=S)N[C@H]1CC[C@@H](Nc2nc3c(c(N(C)C)n2)CCCC3)CC1` [compound 1944], for which the class is given as 3 (Class 3 The value of percent of control at 10^−7 M was more than 60% or the value of IC50 was more than 200 nM.). As for `COc1ccc(-c2ccccc2)cc1NC(=S)N[C@H]1CC[C@@H](Nc2nc3c(c(N(C)C)n2)CCCC3)CC1` [compound 1945], the class is listed as 3 (Class 3 The value of percent of control at 10^−7 M was more than 60% or the value of IC50 was more than 200 nM.). On to `CN(C)c1nc(N[C@H]2CC[C@@H](NC(=S)NCc3ccc4c(c3)OCO4)CC2)nc2c1CCCC2` [compound 1946], for which the class is recorded as 3 (Class 3 The value of percent of control at 10^−7 M was more than 60% or the value of IC50 was more than 200 nM.). With `Cc1cccc(NC(=S)N[C@H]2CC[C@@H](Nc3nc4c(c(N(C)C)n3)CCCC4)CC2)c1` [compound 1947] the figure was 3 (Class 3 The value of percent of control at 10^−7 M was more than 60% or the value of IC50 was more than 200 nM.); with `CSc1ccc(NC(=S)N[C@H]2CC[C@@H](Nc3nc4c(c(N(C)C)n3)CCCC4)CC2)cc1` [compound 1948], 3 (Class 3 The value of percent of control at 10^−7 M was more than 60% or the value of IC50 was more than 200 nM.).

Consider `COc1ccc(NC(=S)N[C@H]2CC[C@@H](Nc3nc4c(c(N(C)C)n3)CCCC4)CC2)cc1` [compound 1949], for which the class is recorded as 3 (Class 3 The value of percent of control at 10^−7 M was more than 60% or the value of IC50 was more than 200 nM.). Consider `C=C(C)CNC(=S)N[C@H]1CC[C@@H](Nc2nc3c(c(N(C)C)n2)CCCC3)CC1` [compound 1950], for which the class is on record as 3 (Class 3 The value of percent of control at 10^−7 M was more than 60% or the value of IC50 was more than 200 nM.). As for `CNC(=S)N[C@H]1CC[C@@H](Nc2nc3c(c(N(C)C)n2)CCCC3)CC1` [compound 1951], the class is 3 (Class 3 The value of percent of control at 10^−7 M was more than 60% or the value of IC50 was more than 200 nM.).

Regarding `CN(C)c1nc(N[C@H]2CC[C@@H](NC(=S)Nc3cccc([N+](=O)[O-])c3)CC2)nc2c1CCCC2` [compound 1952], the class was 3 (Class 3 The value of percent of control at 10^−7 M was more than 60% or the value of IC50 was more than 200 nM.). Then `CN(C)c1nc(N[C@H]2CC[C@@H](NC(=S)Nc3ccc([N+](=O)[O-])cc3)CC2)nc2c1CCCC2` [compound 1953], with 3 (Class 3 The value of percent of control at 10^−7 M was more than 60% or the value of IC50 was more than 200 nM.); and `CN(C)c1nc(N[C@H]2CC[C@@H](NC(=S)NC(C)(C)CC(C)(C)C)CC2)nc2c1CCCC2` [compound 1954], with 3 (Class 3 The value of percent of control at 10^−7 M was more than 60% or the value of IC50 was more than 200 nM.); and `CN(C)c1nc(N[C@H]2CC[C@@H](NC(=S)Nc3ccccc3)CC2)nc2c1CCCC2` [compound 1955], with 3 (Class 3 The value of percent of control at 10^−7 M was more than 60% or the value of IC50 was more than 200 nM.). As to `CCCNC(=S)N[C@H]1CC[C@@H](Nc2nc3c(c(N(C)C)n2)CCCC3)CC1` [compound 1956], the class was 3 (Class 3 The value of percent of control at 10^−7 M was more than 60% or the value of IC50 was more than 200 nM.).
